# From US12121521B2, “Uses of salt-inducible kinase (SIK) inhibitors for treating osteoporosis” (The General Hospital Corporation, priority 2016, dated 2024)
# Columns and labels:
# Experiment in all cases: ScanEDGE kinase panel (DiscoverX)
# Format in all cases: binding
# Details in all cases: read-out: % of control activity at 71 nM
# ALK = molecular target: T1, ALK (Homo sapiens, UniProt Q9UM73)
# T1 construct: T7 phage fusion (most kinases) or DNA tag for qPCR (HEK-293-made kinases); purchased DiscoverX (Fremont, CA); host or cells: E. coli BL21-derived host (T7 phage) or HEK-293
# Description: (§1) ScanEDGE kinase assays paneling specificity across a panel of 96 representative kinases were performed by DiscoverX (Fremont, CA). For most assays, kinase-tagged T7 phage strains were grown in parallel in 24-well blocks in an E. coli host derived from the BL21 strain. Bacteria were grown to log phase and infected with T7 phage from frozen stock (MOI=0.4) and incubated with shaking at 32° C. until lysis (90-150 minutes). The lysates were centrifuged (6000×g) and filtered (0.2 μm) to remove cell debris. The remaining kinases were produced in HEK-293 cells and subsequently tagged with DNA for qPCR detection. […] The liganded beads were blocked with excess biotin and washing with blocking buffer (SeaBlock (Pierce), 1% BSA, 0.05% Tween 20, 1 mM DTT) to remove unbound ligand and to reduce non-specific phage binding. […] Test compounds were prepared as 40× stocks in 100% DMSO and directly diluted into the assay. All reactions were performed in polypropylene 384 well plates in a final volume of 40 μl. […] The kinase concentration in the eluates was measured by qPCR.
# RIPK2 = molecular target: T2, RIPK2 (Homo sapiens, UniProt O43353)
# T2 construct: T7 phage fusion (most kinases) or DNA tag after HEK-293 expression; purchased DiscoverX (Fremont, CA), ScanEDGE; host or cells: T7 phage in E. coli BL21-derived host, or HEK-293
# Description: as §1
# FAK = molecular target: T3, FAK (Homo sapiens, UniProt Q05397)
# T3 construct: T7 phage fusion (most kinases) or DNA tag for qPCR (HEK-293-made kinases); purchased DiscoverX; host or cells: E. coli BL21-derived host (T7 phage) or HEK-293
# Description: as §1
# SRC = molecular target: T4, SRC (Homo sapiens, UniProt P12931)
# T4 construct: T7 phage fusion (most kinases) or DNA tag after HEK-293 expression; purchased DiscoverX (Fremont, CA), ScanEDGE; host or cells: T7 phage in E. coli BL21-derived host, or HEK-293
# Description: as §1
# IGF1R = molecular target: T5, IGF1R (Homo sapiens, UniProt P08069)
# T5 construct: T7 phage fusion (most kinases) or DNA tag for qPCR (HEK-293-made kinases); purchased DiscoverX; host or cells: E. coli BL21-derived host (T7 phage) or HEK-293
# Description: as §1
# PAK2 = molecular target: T6, PAK2 (Homo sapiens, UniProt Q13177)
# T6 construct: T7 phage fusion (most kinases) or DNA tag for qPCR (kinases made in HEK-293); purchased DiscoverX; host or cells: E. coli BL21-derived host (T7 phage) or HEK-293
# Description: as §1
# TSSK1B = molecular target: T7, TSSK1B (Homo sapiens, UniProt Q9BXA7)
# T7 construct: T7 phage fusion (most kinases) or DNA tag after HEK-293 expression; purchased DiscoverX (Fremont, CA), ScanEDGE; host or cells: T7 phage in E. coli BL21-derived host, or HEK-293
# Description: as §1
# PRKCE = molecular target: T8, PRKCE (Homo sapiens, UniProt Q02156)
# T8 construct: T7 phage fusion (most kinases) or DNA tag for qPCR (kinases made in HEK-293); purchased DiscoverX; host or cells: E. coli BL21-derived host (T7 phage) or HEK-293
# Description: as §1
# TYK2 = molecular target: T9, TYK2 (Homo sapiens, UniProt P29597)
# T9 construct: T7 phage fusion (most kinases) or DNA tag after HEK-293 expression; purchased DiscoverX (Fremont, CA), ScanEDGE; host or cells: T7 phage in E. coli BL21-derived host, or HEK-293
# Description: as §1
# PCTK1 = molecular target: T10, PCTK1 (Homo sapiens, UniProt Q00536)
# T10 construct: T7 phage fusion (most kinases) or DNA tag for qPCR (kinases made in HEK-293); purchased DiscoverX; host or cells: E. coli BL21-derived host (T7 phage) or HEK-293
# Description: as §1
# CDK3 = molecular target: T11, CDK3 (Homo sapiens, UniProt Q00526)
# T11 construct: T7 phage fusion (most kinases) or DNA tag for qPCR (HEK-293-made kinases); purchased DiscoverX (Fremont, CA); host or cells: E. coli BL21-derived host (T7 phage) or HEK-293
# Description: as §1
# PAK4 = molecular target: T12, PAK4 (Homo sapiens, UniProt O96013)
# T12 construct: T7 phage fusion (most kinases) or DNA tag for qPCR (kinases made in HEK-293); purchased DiscoverX; host or cells: E. coli BL21-derived host (T7 phage) or HEK-293
# Description: as §1
# PIM2 = molecular target: T13, PIM2 (Homo sapiens, UniProt Q9P1W9)
# T13 construct: T7 phage fusion (most kinases) or DNA tag for qPCR (kinases made in HEK-293); purchased DiscoverX; host or cells: E. coli BL21-derived host (T7 phage) or HEK-293
# Description: as §1
# RAF1 = molecular target: T14, RAF1 (Homo sapiens, UniProt P04049)
# T14 construct: T7 phage fusion (most kinases) or DNA tag after HEK-293 expression; purchased DiscoverX (Fremont, CA), ScanEDGE; host or cells: T7 phage in E. coli BL21-derived host, or HEK-293
# Description: as §1
# JNK2 = molecular target: T15, JNK2 (Homo sapiens, UniProt P45984)
# T15 construct: T7 phage fusion (most kinases) or DNA tag for qPCR (HEK-293-made kinases); purchased DiscoverX; host or cells: E. coli BL21-derived host (T7 phage) or HEK-293
# Description: as §1
# CDK2 = molecular target: T16, CDK2 (Homo sapiens, UniProt P24941)
# T16 construct: T7 phage fusion (most kinases) or DNA tag for qPCR (HEK-293-made kinases); purchased DiscoverX (Fremont, CA); host or cells: E. coli BL21-derived host (T7 phage) or HEK-293
# Description: as §1
# MAPKAPK2 = molecular target: T17, MAPKAPK2 (Homo sapiens, UniProt P49137)
# T17 construct: T7 phage fusion (most kinases) or DNA tag for qPCR (HEK-293-made kinases); purchased DiscoverX; host or cells: E. coli BL21-derived host (T7 phage) or HEK-293
# Description: as §1
# TIE2 = molecular target: T18, TIE2 (Homo sapiens, UniProt Q02763)
# T18 construct: T7 phage fusion (most kinases) or DNA tag after HEK-293 expression; purchased DiscoverX (Fremont, CA), ScanEDGE; host or cells: T7 phage in E. coli BL21-derived host, or HEK-293
# Description: as §1
# LCK = molecular target: T19, LCK (Homo sapiens, UniProt P06239)
# T19 construct: T7 phage fusion (most kinases) or DNA tag for qPCR (HEK-293-made kinases); purchased DiscoverX; host or cells: E. coli BL21-derived host (T7 phage) or HEK-293
# Description: as §1
# ERK1 = molecular target: T20, ERK1 (Homo sapiens, UniProt P27361)
# T20 construct: T7 phage fusion (most kinases) or DNA tag for qPCR (HEK-293-made kinases); purchased DiscoverX; host or cells: E. coli BL21-derived host (T7 phage) or HEK-293
# Description: as §1
# MET = molecular target: T21, MET (Homo sapiens, UniProt P08581)
# T21 construct: T7 phage fusion (most kinases) or DNA tag for qPCR (kinases made in HEK-293); purchased DiscoverX; host or cells: E. coli BL21-derived host (T7 phage) or HEK-293
# Description: as §1
# PIK3CA = molecular target: T22, PIK3CA (Homo sapiens, UniProt P42336)
# T22 construct: T7 phage fusion (most kinases) or DNA tag for qPCR (kinases made in HEK-293); purchased DiscoverX; host or cells: E. coli BL21-derived host (T7 phage) or HEK-293
# Description: as §1
# LKB1 = molecular target: T23, LKB1 (Homo sapiens, UniProt Q15831)
# T23 construct: T7 phage fusion (most kinases) or DNA tag for qPCR (HEK-293-made kinases); purchased DiscoverX; host or cells: E. coli BL21-derived host (T7 phage) or HEK-293
# Description: as §1
# CSF1R = molecular target: T24, CSF1R (Homo sapiens, UniProt P07333)
# T24 construct: T7 phage fusion (most kinases) or DNA tag for qPCR (HEK-293-made kinases); purchased DiscoverX (Fremont, CA); host or cells: E. coli BL21-derived host (T7 phage) or HEK-293
# Description: as §1
# BMPR2 = molecular target: T25, BMPR2 (Homo sapiens, UniProt Q13873)
# T25 construct: T7 phage fusion (most kinases) or DNA tag for qPCR (HEK-293-made kinases); purchased DiscoverX (Fremont, CA); host or cells: E. coli BL21-derived host (T7 phage) or HEK-293
# Description: as §1
# EPHA2 = molecular target: T26, EPHA2 (Homo sapiens, UniProt P29317)
# T26 construct: T7 phage fusion (most kinases) or DNA tag for qPCR (HEK-293-made kinases); purchased DiscoverX; host or cells: E. coli BL21-derived host (T7 phage) or HEK-293
# Description: as §1
# YANK3 = molecular target: T27, YANK3 (Homo sapiens, UniProt Q86UX6)
# T27 construct: T7 phage fusion (most kinases) or DNA tag after HEK-293 expression; purchased DiscoverX (Fremont, CA), ScanEDGE; host or cells: T7 phage in E. coli BL21-derived host, or HEK-293
# Description: as §1
# HIPK2 = molecular target: T28, HIPK2 (Homo sapiens, UniProt Q9H2X6)
# T28 construct: T7 phage fusion (most kinases) or DNA tag for qPCR (HEK-293-made kinases); purchased DiscoverX; host or cells: E. coli BL21-derived host (T7 phage) or HEK-293
# Description: as §1
# MEK2 = molecular target: T29, MEK2 (Homo sapiens, UniProt P36507)
# T29 construct: T7 phage fusion (most kinases) or DNA tag for qPCR (kinases made in HEK-293); purchased DiscoverX; host or cells: E. coli BL21-derived host (T7 phage) or HEK-293
# Description: as §1
# FGFR3 = molecular target: T30, FGFR3 (Homo sapiens, UniProt P22607)
# T30 construct: T7 phage fusion (most kinases) or DNA tag for qPCR (HEK-293-made kinases); purchased DiscoverX; host or cells: E. coli BL21-derived host (T7 phage) or HEK-293
# Description: as §1
# FLT3 = molecular target: T31, FLT3 (Homo sapiens, UniProt P36888)
# T31 construct: T7 phage fusion (most kinases) or DNA tag for qPCR (HEK-293-made kinases); purchased DiscoverX; host or cells: E. coli BL21-derived host (T7 phage) or HEK-293
# Description: as §1
# BRSK1 = molecular target: T32, BRSK1 (Homo sapiens, UniProt Q8TDC3)
# T32 construct: T7 phage fusion (most kinases) or DNA tag for qPCR (HEK-293-made kinases); purchased DiscoverX (Fremont, CA); host or cells: E. coli BL21-derived host (T7 phage) or HEK-293
# Description: as §1
# MAP3K4 = molecular target: T33, MAP3K4 (Homo sapiens, UniProt Q9Y6R4)
# T33 construct: T7 phage fusion (most kinases) or DNA tag for qPCR (HEK-293-made kinases); purchased DiscoverX; host or cells: E. coli BL21-derived host (T7 phage) or HEK-293
# Description: as §1
# T8 sequence (Q02156 whole entry, the tested form may be a part): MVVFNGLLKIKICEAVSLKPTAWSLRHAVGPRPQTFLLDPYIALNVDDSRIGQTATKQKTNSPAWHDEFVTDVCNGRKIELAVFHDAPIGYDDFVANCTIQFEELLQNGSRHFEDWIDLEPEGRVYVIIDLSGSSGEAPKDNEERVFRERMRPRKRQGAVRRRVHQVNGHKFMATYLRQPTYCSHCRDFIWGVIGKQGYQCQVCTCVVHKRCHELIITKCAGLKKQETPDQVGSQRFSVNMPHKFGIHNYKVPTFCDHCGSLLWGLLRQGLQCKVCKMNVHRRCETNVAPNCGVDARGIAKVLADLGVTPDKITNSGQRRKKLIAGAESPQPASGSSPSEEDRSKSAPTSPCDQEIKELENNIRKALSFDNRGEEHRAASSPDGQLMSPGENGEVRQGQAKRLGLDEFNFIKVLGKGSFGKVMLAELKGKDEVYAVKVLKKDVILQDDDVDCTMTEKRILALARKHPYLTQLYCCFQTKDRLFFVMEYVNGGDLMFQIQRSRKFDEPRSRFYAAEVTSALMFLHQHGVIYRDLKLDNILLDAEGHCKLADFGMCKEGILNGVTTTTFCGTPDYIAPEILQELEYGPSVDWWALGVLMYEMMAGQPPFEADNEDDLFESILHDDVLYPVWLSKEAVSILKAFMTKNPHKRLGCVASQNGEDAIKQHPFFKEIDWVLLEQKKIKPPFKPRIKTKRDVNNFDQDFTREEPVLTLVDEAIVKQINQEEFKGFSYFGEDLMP
# T24 sequence (P07333 20-972): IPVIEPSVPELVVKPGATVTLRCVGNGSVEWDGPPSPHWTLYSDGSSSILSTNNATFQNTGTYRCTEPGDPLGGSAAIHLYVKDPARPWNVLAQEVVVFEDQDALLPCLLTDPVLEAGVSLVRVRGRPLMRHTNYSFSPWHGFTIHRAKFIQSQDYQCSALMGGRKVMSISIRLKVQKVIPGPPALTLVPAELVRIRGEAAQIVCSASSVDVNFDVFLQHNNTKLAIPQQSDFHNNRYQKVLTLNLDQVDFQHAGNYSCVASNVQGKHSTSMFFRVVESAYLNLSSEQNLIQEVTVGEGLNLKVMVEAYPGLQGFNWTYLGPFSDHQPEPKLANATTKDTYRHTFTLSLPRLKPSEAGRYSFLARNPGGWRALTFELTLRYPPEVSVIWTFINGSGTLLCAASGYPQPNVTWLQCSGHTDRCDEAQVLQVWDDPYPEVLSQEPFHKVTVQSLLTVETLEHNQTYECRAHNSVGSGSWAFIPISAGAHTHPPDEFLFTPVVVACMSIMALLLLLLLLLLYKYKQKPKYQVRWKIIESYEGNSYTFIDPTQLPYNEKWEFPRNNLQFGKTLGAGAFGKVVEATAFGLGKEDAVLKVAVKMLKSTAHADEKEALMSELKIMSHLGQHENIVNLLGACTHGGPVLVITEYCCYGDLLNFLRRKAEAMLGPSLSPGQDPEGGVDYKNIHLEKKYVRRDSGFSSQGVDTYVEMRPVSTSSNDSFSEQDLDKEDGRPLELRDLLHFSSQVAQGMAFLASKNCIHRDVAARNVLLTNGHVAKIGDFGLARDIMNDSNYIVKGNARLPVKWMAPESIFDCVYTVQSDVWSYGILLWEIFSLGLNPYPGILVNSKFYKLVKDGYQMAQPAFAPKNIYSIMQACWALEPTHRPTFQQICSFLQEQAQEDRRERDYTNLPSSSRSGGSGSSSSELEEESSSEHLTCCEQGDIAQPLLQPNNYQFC
# T15 sequence (P45984 whole entry, the tested form may be a part): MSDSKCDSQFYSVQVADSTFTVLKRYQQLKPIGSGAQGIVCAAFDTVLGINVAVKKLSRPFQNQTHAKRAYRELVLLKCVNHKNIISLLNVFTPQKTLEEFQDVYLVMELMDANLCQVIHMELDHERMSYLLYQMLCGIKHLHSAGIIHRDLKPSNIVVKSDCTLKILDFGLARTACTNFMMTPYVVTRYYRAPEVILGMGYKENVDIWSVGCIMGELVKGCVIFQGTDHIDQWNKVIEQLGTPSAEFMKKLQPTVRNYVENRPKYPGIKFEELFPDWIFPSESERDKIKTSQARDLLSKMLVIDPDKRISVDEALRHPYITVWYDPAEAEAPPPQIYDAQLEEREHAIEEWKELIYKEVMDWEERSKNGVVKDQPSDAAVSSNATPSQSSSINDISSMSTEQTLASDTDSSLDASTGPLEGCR
# T31 sequence (P36888 27-993): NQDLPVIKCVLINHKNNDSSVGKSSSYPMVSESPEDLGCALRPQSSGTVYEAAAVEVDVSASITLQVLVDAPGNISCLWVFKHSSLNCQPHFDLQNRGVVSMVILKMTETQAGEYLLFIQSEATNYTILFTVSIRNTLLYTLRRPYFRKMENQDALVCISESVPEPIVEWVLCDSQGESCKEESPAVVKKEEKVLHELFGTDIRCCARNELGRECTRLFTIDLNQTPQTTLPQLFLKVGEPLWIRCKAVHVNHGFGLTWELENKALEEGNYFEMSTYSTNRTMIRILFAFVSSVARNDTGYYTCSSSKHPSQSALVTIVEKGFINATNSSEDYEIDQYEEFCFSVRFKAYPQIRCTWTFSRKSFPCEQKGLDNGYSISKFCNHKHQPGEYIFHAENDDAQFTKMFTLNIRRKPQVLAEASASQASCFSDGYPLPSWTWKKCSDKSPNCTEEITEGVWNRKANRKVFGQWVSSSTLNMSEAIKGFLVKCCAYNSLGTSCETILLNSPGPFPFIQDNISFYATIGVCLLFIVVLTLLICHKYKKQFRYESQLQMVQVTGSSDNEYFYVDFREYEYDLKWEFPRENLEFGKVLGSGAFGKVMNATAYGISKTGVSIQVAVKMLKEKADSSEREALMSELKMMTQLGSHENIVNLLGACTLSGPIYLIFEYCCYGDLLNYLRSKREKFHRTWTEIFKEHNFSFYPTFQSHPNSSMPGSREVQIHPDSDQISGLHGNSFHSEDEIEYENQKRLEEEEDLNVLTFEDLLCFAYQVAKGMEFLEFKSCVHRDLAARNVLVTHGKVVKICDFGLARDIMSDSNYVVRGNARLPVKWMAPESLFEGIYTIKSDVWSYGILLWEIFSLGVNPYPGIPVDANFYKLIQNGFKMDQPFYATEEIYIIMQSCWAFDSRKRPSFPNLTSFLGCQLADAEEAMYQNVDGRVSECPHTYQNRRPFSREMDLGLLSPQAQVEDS
# T3 sequence (Q05397 whole entry, the tested form may be a part): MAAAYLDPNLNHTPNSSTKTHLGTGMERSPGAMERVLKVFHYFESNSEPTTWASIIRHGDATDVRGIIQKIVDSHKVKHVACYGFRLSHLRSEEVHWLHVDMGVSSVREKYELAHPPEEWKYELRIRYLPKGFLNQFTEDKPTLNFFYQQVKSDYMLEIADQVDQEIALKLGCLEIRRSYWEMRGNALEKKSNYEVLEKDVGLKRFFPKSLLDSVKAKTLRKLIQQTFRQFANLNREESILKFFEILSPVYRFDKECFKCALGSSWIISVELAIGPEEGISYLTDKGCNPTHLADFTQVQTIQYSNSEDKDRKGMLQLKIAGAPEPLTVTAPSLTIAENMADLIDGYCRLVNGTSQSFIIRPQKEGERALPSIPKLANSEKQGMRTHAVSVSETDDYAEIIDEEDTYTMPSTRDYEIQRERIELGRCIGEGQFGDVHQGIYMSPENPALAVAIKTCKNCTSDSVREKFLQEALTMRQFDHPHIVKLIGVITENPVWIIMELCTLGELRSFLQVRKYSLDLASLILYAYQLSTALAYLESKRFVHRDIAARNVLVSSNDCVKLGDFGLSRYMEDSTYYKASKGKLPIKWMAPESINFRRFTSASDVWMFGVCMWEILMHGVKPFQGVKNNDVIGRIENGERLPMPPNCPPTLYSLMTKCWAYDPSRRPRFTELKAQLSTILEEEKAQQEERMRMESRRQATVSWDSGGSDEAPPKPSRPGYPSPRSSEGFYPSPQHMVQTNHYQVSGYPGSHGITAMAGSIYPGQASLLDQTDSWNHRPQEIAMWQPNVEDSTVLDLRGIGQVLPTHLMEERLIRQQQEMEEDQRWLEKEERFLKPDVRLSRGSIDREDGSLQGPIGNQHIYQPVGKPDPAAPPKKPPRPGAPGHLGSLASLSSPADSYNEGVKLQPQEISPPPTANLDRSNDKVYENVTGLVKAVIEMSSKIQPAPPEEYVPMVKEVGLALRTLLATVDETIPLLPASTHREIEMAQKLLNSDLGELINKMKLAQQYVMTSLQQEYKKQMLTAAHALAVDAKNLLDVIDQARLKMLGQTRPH
# T2 sequence (O43353 whole entry, the tested form may be a part): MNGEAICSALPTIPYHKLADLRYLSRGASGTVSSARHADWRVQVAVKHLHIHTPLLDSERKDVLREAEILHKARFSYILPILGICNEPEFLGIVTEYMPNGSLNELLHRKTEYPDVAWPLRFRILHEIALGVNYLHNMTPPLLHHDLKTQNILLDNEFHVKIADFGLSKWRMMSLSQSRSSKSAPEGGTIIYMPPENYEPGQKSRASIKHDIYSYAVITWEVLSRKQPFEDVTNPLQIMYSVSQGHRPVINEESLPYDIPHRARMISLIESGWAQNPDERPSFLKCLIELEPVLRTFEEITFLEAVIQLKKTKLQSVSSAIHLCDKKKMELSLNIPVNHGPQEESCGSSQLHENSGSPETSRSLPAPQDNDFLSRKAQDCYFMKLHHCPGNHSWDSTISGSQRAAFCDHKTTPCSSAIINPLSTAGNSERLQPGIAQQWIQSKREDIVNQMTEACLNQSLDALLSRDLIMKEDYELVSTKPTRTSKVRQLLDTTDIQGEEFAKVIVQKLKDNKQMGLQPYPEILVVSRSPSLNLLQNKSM
# T20 sequence (P27361 whole entry, the tested form may be a part): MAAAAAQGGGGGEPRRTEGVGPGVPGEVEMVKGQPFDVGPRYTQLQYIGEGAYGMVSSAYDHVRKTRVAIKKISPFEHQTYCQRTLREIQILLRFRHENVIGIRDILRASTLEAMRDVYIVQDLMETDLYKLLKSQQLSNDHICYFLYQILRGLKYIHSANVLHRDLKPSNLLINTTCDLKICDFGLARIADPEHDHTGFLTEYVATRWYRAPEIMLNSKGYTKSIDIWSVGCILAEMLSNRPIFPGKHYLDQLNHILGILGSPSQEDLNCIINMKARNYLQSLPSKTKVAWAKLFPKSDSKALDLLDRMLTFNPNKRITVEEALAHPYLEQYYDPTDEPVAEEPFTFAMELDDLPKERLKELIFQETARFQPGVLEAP
structure (smiles),measurement,setting,value
COc1ccc(N2C(=O)N(c3c(C)cccc3C)Cc3cnc(Nc4ccc(C5CCN(C)CC5)c(OC)c4)nc32)c(OC)c1 [YKL-05-093],remaining binding at 0.071 µM,ALK,23%
same,remaining binding at 0.071 µM,RIPK2,16%
same,remaining binding at 0.071 µM,FAK,90%
same,remaining binding at 0.071 µM,SRC,0%
same,remaining binding at 0.071 µM,IGF1R,100%
same,remaining binding at 0.071 µM,PAK2,75%
same,remaining binding at 0.071 µM,TSSK1B,83%
same,remaining binding at 0.071 µM,PRKCE,92%
same,remaining binding at 0.071 µM,TYK2,49%
same,remaining binding at 0.071 µM,PCTK1,91%
same,remaining binding at 0.071 µM,CDK3,80%
same,remaining binding at 0.071 µM,PAK4,88%
same,remaining binding at 0.071 µM,PIM2,97%
same,remaining binding at 0.071 µM,RAF1,100%
same,remaining binding at 0.071 µM,JNK2,89%
same,remaining binding at 0.071 µM,CDK2,99%
same,remaining binding at 0.071 µM,MAPKAPK2,85%
same,remaining binding at 0.071 µM,TIE2,32%
same,remaining binding at 0.071 µM,LCK,0.75%
same,remaining binding at 0.071 µM,ERK1,100%
same,remaining binding at 0.071 µM,MET,92%
same,remaining binding at 0.071 µM,PIK3CA,84%
same,remaining binding at 0.071 µM,LKB1,85%
same,remaining binding at 0.071 µM,CSF1R,0.85%
same,remaining binding at 0.071 µM,BMPR2,87%
same,remaining binding at 0.071 µM,EPHA2,7.1%
same,remaining binding at 0.071 µM,YANK3,95%
same,remaining binding at 0.071 µM,HIPK2,100%
same,remaining binding at 0.071 µM,MEK2,12%
same,remaining binding at 0.071 µM,FGFR3,24%
same,remaining binding at 0.071 µM,FLT3,20%
same,remaining binding at 0.071 µM,BRSK1,74%
same,remaining binding at 0.071 µM,MAP3K4,60%
